As a reminder, the solubility is the concentration that dissolves in the medium under given conditions.

Results on two compounds are retold here after patent US20220080025A1, “VITAMIN E AND CANCER THERAPEUTIC COMPOSITIONS AND METHODS” (University of Vermont and State Agricultural College, priority 2019, published 2022).

The test system of data set [1] is LP9 cells. As to the kind of experiment: Cell viability of LP9 mesothelial cells, 48 h, crystal violet staining. The data set is classed as cell-based. The conditions noted are these: VitE-TPGS (w/v) in 0.9% NaCl. On the procedure:
(§1) Studies were performed to test the effects on cell viability of mesothelial (LP9) and malignant mesothelioma (HM) cells in culture when contacted with thiostrepton (TS) or TS diluted in Vitamin E-TPGS (VitE-TPGS, D-alpha-tocopherol polyethylene glycol 1000 succinate).
(§2) Indicated cell lines were plated into 96 well plates and allowed to adhere overnight. The following day test compounds were serially diluted in duplicate wells onto cells in complete tissue culture media. VitE-TPGS was serially diluted from a starting concentration of 0.025% (w/v) in 0.9% NaCl and added to LP9 or HM cells (FIG. 1). TS, dissolved in DMSO, was diluted to a starting concentration of 20 μM into cell culture media and serially diluted or diluted from a 1.5 mM TS/DMSO/5% VitE-TPGS (33 mM)/0.9% NaCl solution to a starting concentration of 20 μM TS/0.06% VitE-TPGS and serially diluted onto LP9 or HM cells (FIG. 2). Cells were incubated with test compounds for 48 hours before determining cell number using an indirect readout of cell viability by staining residual cells with crystal violet. The inhibitory concentration (IC50) in which 50% of the cells are not viable, was determined for tested compounds.

Data set [2] relates to HM cells. In words: Cell viability of HM malignant mesothelioma cells, 48 h, crystal violet staining. In kind it is cell-based. On the procedure: as §1, §2
The nature of data set [3]: Equilibrium (intrinsic) solubility of the test article in formulation mixtures, 24h, LC/MS. The conditions noted are these: for solubility at 24 h: aqueous with cosolvent or surfactant or cyclodextrin, thermodynamic from solid.
Experimental: (§3) This study was performed to determine the intrinsic solubility of the test article in a variety of formulation systems as detailed below.
(§4) This method measured equilibrium solubility after 24h incubation with the desired formulation mixture. The solubility of the test article in each formulation mixture was measured by comparison of the AUC of the LC/MS spectrum obtained by injection of the solution of the test article in the desired solvent to the AUC of a reference standard solution. […] The reference solution was made fresh for every time point. Data was then calculated to give % test article remaining as function of time.
(§5) 1) A stock solution of the active pharmaceutical ingredient (API) was prepared in a 1,4-dioxane at 10 mM. 2) Nineteen 200 μl portions of stock were dispensed into 19 clean 500 μl micro-centrifuge tubes and the solvent removed by a stream of nitrogen. The 19 tubes were marked with numbers 1-19. 3) Five 200 μl portions of stock were dispensed into 5 clean 200 μl micro-centrifuge tubes and the solvent removed by a stream of nitrogen; these tubes were marked: S1, S2, S3, S4 and S5 and were to be saved for quantization by LC/MS. 4) The vehicles were prepared on a w/w basis for co-solvents, and on a molar basis for salts. 5) 200 μL of each vehicle was introduced into the appropriate micro centrifuge tube 1-19, corresponding to that vehicle. The final concentration of API was 10 mM. These were the test samples. 6) The sample tubes 1-19 were sonicated for 30 min and then agitated for 24h. 7) The vessel was centrifuged and 50 μl of the supernatant was removed and diluted with 350 μl of acetonitrile for LC/MS analysis. These were the test samples. 8) Micro-centrifuge tubes S1-S5 were reconstituted immediately before analysis by adding 200 μl of acetonitrile and 200 μl od 1,4-dioxane to the tubes and sonicating for 30 min. These were the standards. 9) Before analysis all 24 tubes were centrifuged. 10) 50 μl of the clear supernatant from Sample tubes 1-19 was removed and diluted into 350 μl of acetonitrile for LC/MS analysis. 11) 100 μl of the clear supernatant from Standard tubes S1-S5 was removed and diluted into 300 μl of acetonitrile for LC/MS analysis.
(§6) 13) Quantization was based on comparison to the AUC from the stock solution and was relative.
(§7) A freshly prepared standard was used for each time point.
Data set [4] in a line: physchem. As to conditions: 5% VitE-TPGS in normal saline, aqueous with cosolvent or surfactant or cyclodextrin, thermodynamic from solid.
Experimental: as §3, §4, §5, §6, §7

≈ marks a conversion by molar mass, not a printed value.

For the compound “D-a-tocopheryl polyethylene glycol 1000 succinate [VitE-TPGS]”, the IC50 was found to be 0.0014% in data set [1] and 0.0006% in data set [2] (HM cells, VitE-TPGS (w/v) in 0.9% NaCl).

As to `C=C(NC(=O)C(=C)NC(=O)c1csc(C2=N[C@@H]3c4csc(n4)[C@H]4NC(=O)c5csc(n5)[C@H]([C@](C)(O)[C@@H](C)O)NC(=O)[C@H]5CSC(=N5)/C(=C/C)NC(=O)[C@H]([C@@H](C)O)NC(=O)c5csc(n5)[C@]3(CC2)NC(=O)[C@H](C)NC(=O)C(=C)NC(=O)[C@H](C)NC(=O)[C@H]([C@@H](C)CC)N[C@@H]2C=Cc3c([C@H](C)O)cc(nc3[C@H]2O)C(=O)O[C@@H]4C)n1)C(N)=O` [TS, Thiostrepton], the solubility at 24 h in data set [3] (1% polyacrylic acid (450,000 amw) in normal saline) worked out at 130 µM (≈ 216 µg/mL); in data set [3] (1% polyvinylalcohol (61,000 amw) in normal saline), 200 µM (≈ 333 µg/mL); in data set [3] (2% Tween 80 in normal saline) it was 220 µM (≈ 366 µg/mL); in data set [3] (10% Cremophore in normal saline) it was 1140 µM (≈ 1900 µg/mL); in data set [3] (10% Solutol HS 15 in normal saline), 520 µM (≈ 866 µg/mL); in data set [3] (10% capmul in normal saline), 50 µM (≈ 83.2 µg/mL). Besides, the solubility at 24 h in data set [3] (10% meglumine in normal saline) is 200 µM (≈ 333 µg/mL); in data set [3] (20% Captisol in normal saline) it was 380 µM (≈ 633 µg/mL); in data set [3] (20% Gelucire 44/14 in normal saline), 1170 µM (≈ 1950 µg/mL); in data set [3] (20% Labrafil 1944CS in normal saline), 490 µM (≈ 816 µg/mL); in data set [3] (20% Peceol in normal saline), 300 µM (≈ 499 µg/mL); in data set [3] (20% hydroxypropyl-beta-cyclodextrin in normal saline), 440 µM (≈ 733 µg/mL). Moreover, the solubility at 24 h in data set [3] (20% poloxamer 188 in normal saline) turned out to be 210 µM (≈ 350 µg/mL); in data set [3] (20% transcutol in normal saline) it was 660 µM (≈ 1100 µg/mL); in data set [3] (30% Capryol 90 in normal saline), 1470 µM (≈ 2450 µg/mL); in data set [3] (30% Labrafac PG in normal saline) it was 380 µM (≈ 633 µg/mL); in data set [3] (30% Labrasol in normal saline), 150 µM (≈ 250 µg/mL); in data set [3] (30% polyethylene glycol 300 in normal saline), 320 µM (≈ 533 µg/mL). Also, the solubility at 24 h in data set [4] stood at 1740 µM (≈ 2900 µg/mL). For the same compound, the “Solubility (in words)” value in data set [3] (1,4-dioxane and chloroform) is given as “freely soluble”; in data set [3] (aqueous solutions and a variety of organic solvents) it was “fairly low solubility”. Also, the “Sensitivity of HM cells compared to LP9 cells” value in data set [2] (HM vs LP9 cells) was “more sensitive”.
